# Laboratory results as given in ChEMBL document CHEMBL3885861, “Open TG-GATES”.
# Organism: Rattus norvegicus
# Experiment: Open TG-GATES - Regimen: Daily Repeat
# Format: toxicity, organism-based, Sprague-Dawley
# Set-up: regimen Daily Repeat, gender Male, age 6 weeks
# Conditions: in vivo, po, 0 mg/kg, route gavage, dose level Control; for APTT / Bas / Eos / Fbg / Hb / Ht / Lym / MCH / MCHC / MCV / Mono / Neu / PT / Plat / RBC / Ret / WBC: tissue Blood; for KIDNEY_L / KIDNEY_R / KIDNEY_TOTAL: tissue Kidney; for LIVER: tissue Liver; for ALP / ALT / AST / BUN / CRE / Ca / Cl / DBIL / GLC / IP / K / LDH / Na / PL / RALB / TBIL / TC / TG / TP / gamma-GTP: tissue Plasma
smiles,measurement,setting,value
O=P1(N(CCCl)CCCl)NCCCO1 (stereo not drawn) [CYCLOPHOSPHAMIDE ANHYDROUS],TERMINAL_BW,"72 h, time 3 day",215.1 g
same,APTT,"72 h, time 3 day",21.5 s
same,Bas,"72 h, time 3 day",0%
same,Eos,"72 h, time 3 day",0.8%
same,Fbg,"72 h, time 3 day",293.2 mg/dL
same,Hb,"72 h, time 3 day",13.3 g/dL
same,Ht,"72 h, time 3 day",40.1%
same,Lym,"72 h, time 3 day",81.4%
same,MCH,"72 h, time 3 day",21.8 pg
same,MCHC,"72 h, time 3 day",33.2%
same,MCV,"72 h, time 3 day",65.7 fL
same,Mono,"72 h, time 3 day",2.6%
same,Neu,"72 h, time 3 day",14.6%
same,PT,"72 h, time 3 day",16.8 s
same,Plat,"72 h, time 3 day",112 x10_4/uL
same,RBC,"72 h, time 3 day",611 x10_4/ul
same,Ret,"72 h, time 3 day",6.7%
same,WBC,"72 h, time 3 day",82.4 x10_2/uL
same,KIDNEY_L,"72 h, time 3 day",0.9 g
same,KIDNEY_R,"72 h, time 3 day",0.9 g
same,KIDNEY_TOTAL,"72 h, time 3 day",1.9 g
same,LIVER,"72 h, time 3 day",10.1 g
same,ALP,"72 h, time 3 day",1749.2 IU/L
same,ALT,"72 h, time 3 day",40.2 IU/L
same,AST,"72 h, time 3 day",68 IU/L
same,BUN,"72 h, time 3 day",15.4 mg/dL
same,CRE,"72 h, time 3 day",0.2 mg/dL
same,Ca,"72 h, time 3 day",10.8 mg/dL
same,Cl,"72 h, time 3 day",106.2 meq/L
same,DBIL,"72 h, time 3 day",0.002 mg/dL
same,GLC,"72 h, time 3 day",182.6 mg/dL
same,IP,"72 h, time 3 day",6.4 mg/dL
same,K,"72 h, time 3 day",3.9 meq/L
same,LDH,"72 h, time 3 day",190.6 IU/L
same,Na,"72 h, time 3 day",142.6 meq/L
same,PL,"72 h, time 3 day",133.8 mg/dL
same,RALB,"72 h, time 3 day",3.1 g/dL
same,TBIL,"72 h, time 3 day",0.018 mg/dL
same,TC,"72 h, time 3 day",69.6 mg/dL
same,TG,"72 h, time 3 day",84.2 mg/dL
same,TP,"72 h, time 3 day",5.5 g/dL
same,gamma-GTP,"72 h, time 3 day",1 IU/L
same,TERMINAL_BW,"[…], time 7 day",254.4 g
same,TERMINAL_BW,"[…], time 14 day",304.2 g
same,TERMINAL_BW,"[…], time 28 day",368.5 g
same,APTT,"[…], time 7 day",21.7 s
same,Bas,"[…], time 7 day",0%
same,Eos,"[…], time 7 day",1%
same,Fbg,"[…], time 7 day",283.2 mg/dL
same,Hb,"[…], time 7 day",13.1 g/dL
same,Ht,"[…], time 7 day",39.7%
same,Lym,"[…], time 7 day",80%
same,MCH,"[…], time 7 day",20.7 pg
same,MCHC,"[…], time 7 day",33.1%
same,MCV,"[…], time 7 day",62.7 fL
same,Mono,"[…], time 7 day",2.4%
same,Neu,"[…], time 7 day",16.2%
same,PT,"[…], time 7 day",16.8 s
same,Plat,"[…], time 7 day",112.1 x10_4/uL
same,RBC,"[…], time 7 day",633.4 x10_4/ul
same,Ret,"[…], time 7 day",6.1%
same,WBC,"[…], time 7 day",106.9 x10_2/uL
same,APTT,"[…], time 14 day",22 s
same,Bas,"[…], time 14 day",0%
same,Eos,"[…], time 14 day",1%
same,Fbg,"[…], time 14 day",307.8 mg/dL
same,Hb,"[…], time 14 day",13.7 g/dL
same,Ht,"[…], time 14 day",40.6%
same,Lym,"[…], time 14 day",81.4%
same,MCH,"[…], time 14 day",20.2 pg
same,MCHC,"[…], time 14 day",33.7%
same,MCV,"[…], time 14 day",60 fL
same,Mono,"[…], time 14 day",2.2%
same,Neu,"[…], time 14 day",14.6%
same,PT,"[…], time 14 day",15 s
same,Plat,"[…], time 14 day",118.8 x10_4/uL
same,RBC,"[…], time 14 day",676.6 x10_4/ul
same,Ret,"[…], time 14 day",4.8%
same,WBC,"[…], time 14 day",131.2 x10_2/uL
same,APTT,"[…], time 28 day",23.8 s
same,Bas,"[…], time 28 day",0%
same,Eos,"[…], time 28 day",1%
same,Fbg,"[…], time 28 day",303.8 mg/dL
same,Hb,"[…], time 28 day",14.8 g/dL
same,Ht,"[…], time 28 day",43.6%
same,Lym,"[…], time 28 day",82.4%
same,MCH,"[…], time 28 day",19.2 pg
same,MCHC,"[…], time 28 day",34%
same,MCV,"[…], time 28 day",56.6 fL
same,Mono,"[…], time 28 day",2%
same,Neu,"[…], time 28 day",13.6%
same,PT,"[…], time 28 day",16.5 s
same,Plat,"[…], time 28 day",96.2 x10_4/uL
same,RBC,"[…], time 28 day",769.8 x10_4/ul
same,Ret,"[…], time 28 day",2.9%
same,WBC,"[…], time 28 day",112.3 x10_2/uL
same,KIDNEY_L,"[…], time 7 day",1.1 g
same,KIDNEY_R,"[…], time 7 day",1.1 g
same,KIDNEY_TOTAL,"[…], time 7 day",2.2 g
same,KIDNEY_L,"[…], time 14 day",1.2 g
same,KIDNEY_R,"[…], time 14 day",1.2 g
same,KIDNEY_TOTAL,"[…], time 14 day",2.4 g
same,KIDNEY_L,"[…], time 28 day",1.3 g
same,KIDNEY_R,"[…], time 28 day",1.3 g
same,KIDNEY_TOTAL,"[…], time 28 day",2.6 g
same,LIVER,"[…], time 7 day",11 g
same,LIVER,"[…], time 14 day",13.4 g
same,LIVER,"[…], time 28 day",14.2 g
same,ALP,"[…], time 7 day",1566.6 IU/L
same,ALT,"[…], time 7 day",44.8 IU/L
same,AST,"[…], time 7 day",77.6 IU/L
same,BUN,"[…], time 7 day",18.6 mg/dL
same,CRE,"[…], time 7 day",0.2 mg/dL
same,Ca,"[…], time 7 day",10.7 mg/dL
same,Cl,"[…], time 7 day",106 meq/L
same,DBIL,"[…], time 7 day",0 mg/dL
same,GLC,"[…], time 7 day",196.2 mg/dL
same,IP,"[…], time 7 day",7.9 mg/dL
same,K,"[…], time 7 day",4.4 meq/L
same,LDH,"[…], time 7 day",200.2 IU/L
same,Na,"[…], time 7 day",143.8 meq/L
same,PL,"[…], time 7 day",146.8 mg/dL
same,RALB,"[…], time 7 day",2.9 g/dL
same,TBIL,"[…], time 7 day",0.016 mg/dL
same,TC,"[…], time 7 day",73.8 mg/dL
same,TG,"[…], time 7 day",98.2 mg/dL
same,TP,"[…], time 7 day",5.4 g/dL
same,gamma-GTP,"[…], time 7 day",1.6 IU/L
same,ALP,"[…], time 14 day",1394.4 IU/L
same,ALT,"[…], time 14 day",37.8 IU/L
same,AST,"[…], time 14 day",65.8 IU/L
same,BUN,"[…], time 14 day",18.2 mg/dL
same,CRE,"[…], time 14 day",0.2 mg/dL
same,Ca,"[…], time 14 day",10.6 mg/dL
same,Cl,"[…], time 14 day",107 meq/L
same,DBIL,"[…], time 14 day",0 mg/dL
same,GLC,"[…], time 14 day",182.6 mg/dL
same,IP,"[…], time 14 day",7 mg/dL
same,K,"[…], time 14 day",4 meq/L
same,LDH,"[…], time 14 day",152 IU/L
same,Na,"[…], time 14 day",143.4 meq/L
same,PL,"[…], time 14 day",140.4 mg/dL
same,RALB,"[…], time 14 day",2.9 g/dL
same,TBIL,"[…], time 14 day",0.012 mg/dL
same,TC,"[…], time 14 day",67.4 mg/dL
same,TG,"[…], time 14 day",147.4 mg/dL
same,TP,"[…], time 14 day",5.7 g/dL
same,gamma-GTP,"[…], time 14 day",1.4 IU/L
same,ALP,"[…], time 28 day",1084 IU/L
same,ALT,"[…], time 28 day",40.4 IU/L
same,AST,"[…], time 28 day",66.4 IU/L
same,BUN,"[…], time 28 day",17.4 mg/dL
same,CRE,"[…], time 28 day",0.2 mg/dL
same,Ca,"[…], time 28 day",10.3 mg/dL
same,Cl,"[…], time 28 day",106.6 meq/L
same,DBIL,"[…], time 28 day",0 mg/dL
same,GLC,"[…], time 28 day",181.2 mg/dL
same,IP,"[…], time 28 day",6.4 mg/dL
same,K,"[…], time 28 day",4 meq/L
same,LDH,"[…], time 28 day",121.8 IU/L
same,Na,"[…], time 28 day",144 meq/L
same,PL,"[…], time 28 day",135.4 mg/dL
same,RALB,"[…], time 28 day",3.1 g/dL
same,TBIL,"[…], time 28 day",0.02 mg/dL
same,TC,"[…], time 28 day",67 mg/dL
same,TG,"[…], time 28 day",111.2 mg/dL
same,TP,"[…], time 28 day",6.2 g/dL
same,gamma-GTP,"[…], time 28 day",1.2 IU/L
